According to patent publication US20250152569A1, “TREATMENT OF CELL PROLIFERATION-ASSOCIATED CONDITIONS USING A COMBINATION OF A CLB-B INHIBITOR AND AN ADDITIONAL THERAPEUTIC AGENT” (HOTSPOT THERAPEUTICS, INC., priority 2022, published 2025):

What was measured:
Set-up in all cases: species or system female BALB/c mice
[1] = system: subcutaneous murine colorectal cancer model CT26.WT; experiment: In vivo efficacy study, CT26.WT model, combination with ALT-803 (Example 6); conditions: Compound 29 30 mg/kg p.o. BID in combination with ALT-803 0.2 mg/kg i.p. QW; FIG. 5A, 5B
Description: (§1) The objective of this study was to evaluate preclinically the in vivo therapeutic efficacy of Test Articles in the treatment of the subcutaneous murine Colorectal model CT26.WT in female BALB/c mice. Compound 29 test particles were delivered via PO. Compound 29 was assessed at various dose levels in combination with ALT-803. Tumor volumes and body weight were measured three times per week after the initiation of treatment.
The CT26.WT tumor cells will be maintained in vitro with RPMI-1640 medium supplemented with 10% fetal bovine serum at 37° C. in an atmosphere of 5% CO2 in air. The cells in exponential growth phase will be harvested and quantitated by cell counter before tumor inoculation. […]
After tumor cells inoculation, the animals will be checked daily for morbidity and mortality. During routine monitoring, the animals will be checked for any effects of tumor growth and treatments on behavior such as mobility, food and water consumption, body weight gain/loss (Body weights will be measured twice per week after randomization), eye/hair matting and any other abnormalities. Mortality and observed clinical signs will be recorded for individual animals in detail. […]
(§2) The body weights and tumor volumes will be measured by using StudyDirector™ software (version 3.1.399.19). […]

[2] = system: subcutaneous murine colorectal cancer model CT26.WT; experiment: In vivo efficacy study, subcutaneous murine colorectal cancer model CT26.WT (Example 4); conditions: Day 16
Description: as §1, with “efficacy of HotSpot Therapeutics's Test Articles” for “efficacy of Test Articles”, “combination with Oxaliplatin or Cabozantinib. Tumor volumes” for “combination with ALT-803. Tumor volumes”
The CT26.WT tumor cells were maintained in vitro with RPMI-1640 medium supplemented with 10% fetal bovine serum at 37° C. in an atmosphere of 5% CO2 in air. The cells in exponential growth phase were harvested and quantitated by cell counter before tumor inoculation.
Each mouse was inoculated subcutaneously it the right lower flank region with 5×10^5 tumor cells in 0.1 ml of PBS mixed with Matrigel (1:1) for tumor development.
The randomization started when the mean tumor size reached approximately 86.42 mm^3. 60 mice were enrolled in the study. All animals were randomly allocated to 6 study groups, 10 mice in each group. Randomization was performed based on “Matched distribution” method (StudyDirector™ software, version 3.1.399.19)
The date of randomization was denoted as day 0.
The treatment was initiated on the same day of randomization (day 0) per study design.
After tumor cells inoculation, the animals were checked daily for morbidity and mortality. During routine monitoring, the animals were checked for any effects of tumor growth and treatments on behavior such as mobility, food and water consumption, body weight gain/loss (Body weights were measured twice per week after randomization), eye/hair matting and any other abnormalities. Mortality and observed clinical signs were recorded for individual animals in detail.
Tumor volumes were measured twice per week after randomization in two dimensions using a caliper, and the volume was expressed in mm^3 using the formula: “V=(L×W×W)/2, where V was tumor volume, L was tumor length (the longest tumor dimension) and W was tumor width (the longest tumor dimension perpendicular to L). Dosing as well as tumor and body weight measurements were conducted in a Laminar Flow Cabinet.
The body weights and tumor volumes were measured by using StudyDirector™ software (version 3.1.399.19).
For Group 01 and Group 03 were terminated when the mean tumor volume of the vehicle control group reaches 2000 mm^3 on day 16.
For Group 02, Group 04, Group 05 and Group 06 were performed for 3 weeks. The study was terminated on day 21 (Sep. 21, 2022).
To compare tumor volumes of different groups at a pre-specified day, we first used Bartlett's test to check the assumption of homogeneity of variance across all groups. When the p-value of Bartlett's test was >=0.05, we ran one-way ANOVA to test overall equality of means across all groups. If the p-value of the one-way ANOVA was <0.05, we further performed post hoc testing by running Tukey's HSD (honest significant difference) tests for all pairwise comparisons, and Dunnett's tests for comparing each treatment group with the vehicle group. When the p-value of Bartlett's test was <0.05, we ran Kruskal-Wallis test to test overall equality of medians among all groups. If the p-value the Kruskal-Wallis test was <0.05, we further performed post hoc testing by running Conover's non-parametric test for all pairwise comparisons or for comparing each treatment group with the vehicle group, both with single-step p-value adjustment.
In addition, we performed pairwise comparisons without multiple comparison correction and report nominal/uncorrected p-values directly from Welch's t-test or Mann-Whitney U test at each time point. Specifically, we first used Shapiro Wilk test to check the assumption of normal distribution for each group. When p-values of Shapiro Wilk tests of both groups in a pair are >0.05, we ran Welch's t-test, otherwise we ran Mann-Whitney U test, to obtain nominal p-values. […]

[3] = system: subcutaneous murine colorectal cancer model CT26.WT; experiment: In vivo efficacy study, CT26.WT model, combination with Doxorubicin, Gemcitabine or Paclitaxel (Example 5)
Description: as §1, with “Doxorubicin, Gemcitabine or Paclitaxel.” for “ALT-803.”
The CT26.WT tumor cells will be maintained in vitro with RPMI-1640 medium supplemented with 10% fetal bovine serum at 37° C. in an atmosphere of 5% CO2 in air. The cells in exponential growth phase will be harvested and quantitated by cell counter before tumor inoculation.
Each ach mouse will be inoculated subcutaneously in the right lower flank region with CT26 tumor cells (5×10^5) in 0.1 ml of PBS for tumor development.
The randomization will start when the mean tumor size reaches approximately 80-100 mm^3. […] Randomization will be performed based on “Matched distribution” method/“Stratified” method (Study Director™ software, version 3.1.399.19)/randomized block design. The date of randomization will be denoted as day 0. […]
After tumor cells inoculation, the animals will be checked daily for morbidity and mortality. During routine monitoring, the animals will be checked for any effects of tumor growth and treatments on behavior such as mobility, food and water consumption, body weight gain/loss (Body weights will be measured twice per week after randomization), eye/hair matting and any other abnormalities. Mortality and observed clinical signs will be recorded for individual animals in detail.
Tumor volumes will be measured twice per week after randomization in two dimensions using a caliper, and the volume will be expressed in mm^3 using the formula: “V=(L×W×W)/2, where V is tumor volume, L is tumor length (the longest tumor dimension) and W is tumor width (the longest tumor dimension perpendicular to L). […]
as §2

[4] = Compound 29 60 mg/kg p.o. BID in combination with Cabozantinib 10 mg/kg p.o. QD (Group 6)
[5] = Compound 29 60 mg/kg p.o. BID in combination with Oxaliplatin 5 mg/kg i.p. Q4D (Group 5)
[6] = single agent, Compound 29 60 mg/kg p.o. BID, Oxaliplatin 5 mg/kg i.p. Q4D, Cabozantinib 10 mg/kg p.o. QD

SMILES	effect on tumor inhibition as compared to each of the agents as monotherapies [1]	T/C (%) [2, 4] [%]	TGI (%) [2, 4] [%]	Tumor Volume (mean ± SEM) [2, 4] [mm^3]	T/C (%) [2, 5] [%]	TGI (%) [2, 5] [%]	Tumor Volume (mean ± SEM) [2, 5] [mm^3]	T/C (%) [2, 6] [%]	TGI (%) [2, 6] [%]	Tumor Volume (mean ± SEM) [2, 6] [mm^3]	effect on tumor inhibition as compared to each of the agents as monotherapies ([3]; Compound 29 60 mg/kg p.o. BID in combination with Doxorubicin 4 mg/kg i.v. Q4D, FIG. 2A, 2B)	effect on tumor inhibition as compared to each of the agents as monotherapies ([3]; Compound 29 60 mg/kg p.o. BID in combination with Gemcitabine 5 mg/kg i.p. Q3D, FIG. 3A, 3B)	effect on tumor inhibition as compared to each of the agents as monotherapies ([3]; Compound 29 60 mg/kg p.o. BID in combination with Paclitaxel 20 mg/kg i.p. QW, FIG. 4A, 4B)
C[C@H]1CCCN(Cc2cc(C(F)(F)F)c3cn(-c4cccc(C5(Cc6nncn6C)COC5)c4)c(=O)n3c2)C1 [Compound 29]	improved effect on tumor inhibition	25.45	74.55	643.08 ± 59.79	35.94	64.06	908.21 ± 76.22	56.42	43.58	1425.65 ± 232.85	improved effect on tumor inhibition	improved effect on tumor inhibition	improved effect on tumor inhibition
O=C1[O][Pt]2([NH][C@@H]3CCCC[C@H]3[NH]2)[O]C1=O [Oxaliplatin, reference compound]								103.27	−3.27	2609.42 ± 203.84			
COc1cc2nccc(Oc3ccc(NC(=O)C4(C(=O)Nc5ccc(F)cc5)CC4)cc3)c2cc1OC [Cabozantinib, reference compound]								30.55	69.45	772.01 ± 100.44			
